From PubChem BioAssay (NCI)
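96-well plates; 48 h exposure; 5 concentrations. Endpoints by linear interpolation between flanking doses. Not reached: highest tested concentration assigned. The concentration for 50% growth inhibition is given as GI50. TGI marks complete inhibition of growth.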

Columns and labels:
Test in all cases: NCI tumour cell line growth inhibition, 48 h
[1] = system: PC-3 prostate
[2] = system: SF-539 CNS
[3] = system: TK-10 renal
[4] = system: UACC-62 melanoma
[5] = system: KM12 colon
[6] = system: SW-620 colon
[7] = system: MALME-3M melanoma
[8] = system: MDA-MB-231 breast
[9] = system: SNB-19 CNS
[10] = system: UO-31 renal
[11] = system: MDA-MB-435
[12] = system: SN12C renal
[13] = system: SK-MEL-2 melanoma
[14] = system: HCT-116 colon
[15] = system: NCI-H522 lung
[16] = system: NCI-H226 lung
[17] = system: ACHN renal
[18] = system: T-47D breast
[19] = system: U251 CNS
[20] = system: CCRF-CEM leukemia
[21] = system: UACC-257 melanoma
[22] = system: HOP-92 NSCLC
[23] = system: OVCAR-5 ovarian
[24] = system: EKVX NSCLC
[25] = system: NCI-H460 lung
[26] = system: HS 578T breast
[27] = system: OVCAR-4 ovarian
[28] = system: SF-268 CNS
[29] = system: HCC-2998 colon
[30] = system: HCT-15 colon
[31] = system: SK-OV-3 ovarian
[32] = system: BT-549 breast
[33] = system: MCF7 breast
[34] = system: SK-MEL-28 melanoma
[35] = system: MOLT-4 leukemia
[36] = system: HL-60(TB) leukemia
[37] = system: A498 renal
[38] = system: NCI-H23 lung
[39] = system: SK-MEL-5 melanoma
[40] = system: CAKI-1 renal
[41] = system: M14 melanoma
[42] = system: K-562 leukemia
[43] = system: NCI/ADR-RES ovarian
[44] = system: OVCAR-3 ovarian
[45] = system: SNB-75 CNS
[46] = system: SF-295 CNS
[47] = system: DU-145 prostate
[48] = system: COLO 205 colon
[49] = system: LOX IMVI melanoma
[50] = system: HT29 colon
[51] = system: IGROV1 ovarian
[52] = system: A549 NSCLC
[53] = system: OVCAR-8 ovarian
[54] = system: HOP-62 NSCLC
[55] = system: SR leukemia
[56] = system: 786-0 renal
[57] = system: RXF 393 renal
[58] = system: RPMI-8226 leukemia

c1ccc(C2CC(c3cccc(Nc4ccncc4)c3)=NN2c2ccccc2)cc1 (configuration not stated)
GI50 [1]: 1.69 µM
TGI [1]: 3.58 µM
GI50 [2]: 1.71 µM
TGI [2]: 3.12 µM
GI50 [3]: 1.86 µM
TGI [3]: 3.6 µM
GI50 [4]: 1.67 µM
TGI [4]: 3.04 µM
GI50 [5]: 1.74 µM
TGI [5]: 3.44 µM
GI50 [6]: 1.65 µM
TGI [6]: 3.27 µM
GI50 [7]: 1.57 µM
TGI [7]: 3.02 µM
GI50 [8]: 1.61 µM
TGI [8]: 3 µM
GI50 [9]: 1.63 µM
TGI [9]: 3 µM
GI50 [10]: 1.48 µM
TGI [10]: 2.8 µM
GI50 [11]: 1.69 µM
TGI [11]: 3.2 µM
GI50 [12]: 1.65 µM
TGI [12]: 3.06 µM
GI50 [13]: 1.87 µM
TGI [13]: 3.46 µM
GI50 [14]: 1.66 µM
TGI [14]: 3.25 µM
GI50 [15]: 1.62 µM
TGI [15]: 3.28 µM
GI50 [16]: 8.39 µM
TGI [16]: 28.7 µM
GI50 [17]: 1.69 µM
TGI [17]: 3.05 µM
GI50 [18]: 2 µM
TGI [18]: 4.7 µM
GI50 [19]: 1.87 µM
TGI [19]: 3.94 µM
GI50 [20]: 2.09 µM
TGI [20]: 5.68 µM
GI50 [21]: 1.94 µM
TGI [21]: 4.15 µM
GI50 [22]: 1.45 µM
TGI [22]: 2.95 µM
GI50 [23]: 1.83 µM
TGI [23]: 3.65 µM
GI50 [24]: 1.61 µM
TGI [24]: 3.42 µM
GI50 [25]: 1.72 µM
TGI [25]: 3.25 µM
GI50 [26]: 1.55 µM
TGI [26]: 3.47 µM
GI50 [27]: 1.72 µM
TGI [27]: 3.43 µM
GI50 [28]: 1.79 µM
TGI [28]: 3.65 µM
GI50 [29]: 1.58 µM
TGI [29]: 2.96 µM
GI50 [30]: 1.59 µM
TGI [30]: 3.18 µM
GI50 [31]: 2.38 µM
TGI [31]: 5.49 µM
GI50 [32]: 1.88 µM
TGI [32]: 3.87 µM
GI50 [33]: 1.61 µM
TGI [33]: 3.29 µM
GI50 [34]: 1.76 µM
TGI [34]: 3.19 µM
GI50 [35]: 2.02 µM
TGI [35]: 4.83 µM
GI50 [36]: 1.65 µM
TGI [36]: 3.73 µM
GI50 [37]: 1.42 µM
TGI [37]: 3.03 µM
GI50 [38]: 1.73 µM
TGI [38]: 3.35 µM
GI50 [39]: 1.77 µM
TGI [39]: 3.22 µM
GI50 [40]: 1.39 µM
TGI [40]: 2.74 µM
GI50 [41]: 1.69 µM
TGI [41]: 3.39 µM
GI50 [42]: 2.02 µM
TGI [42]: 6.76 µM
GI50 [43]: 1.74 µM
TGI [43]: 3.54 µM
GI50 [44]: 1.8 µM
TGI [44]: 3.54 µM
GI50 [45]: 1.32 µM
TGI [45]: 2.88 µM
GI50 [46]: 1.72 µM
TGI [46]: 3.13 µM
GI50 [47]: 1.95 µM
TGI [47]: 4.02 µM
GI50 [48]: 1.9 µM
TGI [48]: 3.86 µM
GI50 [49]: 1.66 µM
TGI [49]: 3.05 µM
GI50 [50]: 1.69 µM
TGI [50]: 3.49 µM
GI50 [51]: 1.68 µM
TGI [51]: 3.18 µM

CN(CCCCCl)P(=O)(OCc1ccc([N+](=O)[O-])o1)OCC1OC(n2ccc(N)nc2=O)C(F)(F)C1O (configuration not stated)
GI50 [1]: 1.82 µM
TGI [1]: 99.3 µM
GI50 [2]: 0.0417 µM
TGI [2]: 0.427 µM
TGI [3]: > 82.7 µM
GI50 [4]: 1.1 µM
TGI [4]: > 100 µM
GI50 [5]: 14.8 µM
TGI [5]: > 73.9 µM
GI50 [6]: > 62 µM
TGI [6]: > 100 µM
GI50 [52]: 0.73 µM
TGI [52]: > 59.5 µM
GI50 [8]: > 49.3 µM
TGI [8]: > 100 µM
GI50 [9]: 0.257 µM
TGI [10]: > 100 µM
GI50 [11]: 0.473 µM
TGI [11]: > 50.9 µM
GI50 [12]: 0.363 µM
TGI [12]: 9.62 µM
GI50 [13]: > 80.3 µM
TGI [13]: > 100 µM
GI50 [14]: 1.16 µM
TGI [14]: > 100 µM
GI50 [15]: > 39 µM
TGI [15]: > 100 µM
GI50 [16]: 15.7 µM
TGI [16]: > 100 µM
GI50 [17]: 0.0374 µM
GI50 [19]: 0.77 µM
TGI [19]: > 86.5 µM
GI50 [53]: 0.108 µM
GI50 [21]: 17.2 µM
TGI [21]: > 100 µM
GI50 [22]: 0.155 µM
TGI [22]: 0.83 µM
GI50 [54]: 0.494 µM
TGI [54]: > 100 µM
GI50 [23]: 1.92 µM
TGI [23]: > 100 µM
GI50 [24]: 2.48 µM
TGI [24]: > 75.4 µM
GI50 [25]: 0.3 µM
GI50 [26]: > 68 µM
TGI [26]: > 100 µM
GI50 [28]: 0.257 µM
GI50 [29]: 3.15 µM
TGI [29]: 49.1 µM
GI50 [30]: > 73.5 µM
TGI [30]: > 100 µM
GI50 [31]: 2.22 µM
TGI [31]: > 100 µM
GI50 [32]: 1.57 µM
TGI [32]: 88.2 µM
GI50 [55]: 0.801 µM
TGI [55]: 5.63 µM
GI50 [33]: 0.45 µM
TGI [33]: > 49 µM
GI50 [34]: 43.1 µM
TGI [34]: > 100 µM
GI50 [35]: 0.379 µM
TGI [35]: 8.92 µM
GI50 [36]: 1.56 µM
TGI [36]: 17.7 µM
GI50 [37]: 5.8 µM
TGI [37]: > 74.5 µM
GI50 [38]: 0.0742 µM
TGI [38]: 1.53 µM
GI50 [39]: 3.2 µM
TGI [39]: > 67.1 µM
GI50 [56]: 0.0614 µM
TGI [56]: 1.5 µM
GI50 [40]: 0.223 µM
GI50 [41]: 0.0537 µM
TGI [41]: 0.269 µM
GI50 [42]: 13 µM
TGI [42]: > 100 µM
GI50 [43]: 0.419 µM
TGI [43]: > 100 µM
GI50 [44]: 3.15 µM
TGI [44]: > 45.5 µM
GI50 [45]: 12.5 µM
TGI [45]: 97.5 µM
GI50 [46]: 0.878 µM
TGI [46]: > 54.6 µM
GI50 [47]: 0.188 µM
TGI [47]: > 28.4 µM
GI50 [48]: 7.47 µM
TGI [48]: > 41.6 µM
GI50 [49]: 0.754 µM
TGI [49]: > 40.6 µM
GI50 [57]: > 100 µM
TGI [57]: > 100 µM
GI50 [58]: 1.87 µM
TGI [58]: > 100 µM
GI50 [50]: 29.7 µM
TGI [50]: > 100 µM
GI50 [51]: 35.4 µM
TGI [51]: > 100 µM
